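Protocol summary: plate cells (96-well), add compound at 5 concentrations, incubate 48 h, interpolate endpoints linearly. GI50 = concentration required for 50% inhibition of growth. The concentration for full growth arrest is given as TGI.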
Assays:
Assay in all cases: DTP human tumour cell line panel, 48 h
ACHN renal = tested on: ACHN renal
EKVX NSCLC = tested on: EKVX NSCLC
KM12 colon = tested on: KM12 colon
SK-MEL-5 melanoma = tested on: SK-MEL-5 melanoma
SNB-19 CNS = tested on: SNB-19 CNS
SW-620 colon = tested on: SW-620 colon
COLO 205 colon = tested on: COLO 205 colon
HOP-92 NSCLC = tested on: HOP-92 NSCLC
MALME-3M melanoma = tested on: MALME-3M melanoma
RXF 393 renal = tested on: RXF 393 renal

Row | SMILES | TGI (ACHN renal) | TGI (EKVX NSCLC) | TGI (KM12 colon) | TGI (SK-MEL-5 melanoma) | TGI (SNB-19 CNS) | TGI (SW-620 colon) | TGI (COLO 205 colon) | TGI (HOP-92 NSCLC) | TGI (MALME-3M melanoma) | TGI (RXF 393 renal) | GI50 (ACHN renal) | GI50 (COLO 205 colon) | GI50 (EKVX NSCLC) | GI50 (HOP-92 NSCLC) | GI50 (KM12 colon) | GI50 (RXF 393 renal) | GI50 (SK-MEL-5 melanoma) | GI50 (SNB-19 CNS) | GI50 (MALME-3M melanoma) | GI50 (SW-620 colon)
1 | COc1ccc(-c2cc(-c3cc(C)cc(Br)c3O)no2)cc1 | 24 µM | 78.3 µM | > 100 µM | 24.3 µM | 58 µM | > 100 µM |  |  |  |  |  |  |  |  |  |  |  |  |  | 
2 | Nc1ccccc1/C(O)=C1/CCOC1=O | > 100 µM | > 100 µM | > 100 µM |  | > 100 µM | > 100 µM | > 100 µM | > 100 µM | > 100 µM |  |  |  |  |  |  |  |  |  |  | 
3 | O=C(CC(=O)n1nc(-c2ccccc2)c(N=Nc2ccc(Cl)cc2)c1-c1ccccc1)Nc1ccc(Cl)cc1 | > 100 µM | > 100 µM | > 100 µM | > 100 µM | > 100 µM | > 62.6 µM | > 63.9 µM | > 100 µM | > 100 µM |  |  |  |  |  |  |  |  |  |  | 
4 | CCCC1=C(CC)C(C(=O)Nc2c(C)cccc2C)=NC(S)N1 (configuration not stated) | > 100 µM | > 100 µM | > 100 µM | > 100 µM | > 100 µM | > 100 µM | > 100 µM | > 100 µM | > 100 µM |  |  |  |  |  |  |  |  |  |  | 
5 | c1cnn(CN(Cn2cccn2)Cn2cccn2)c1 | > 100 µM | > 100 µM | > 100 µM | > 100 µM | > 100 µM | > 100 µM | > 100 µM | > 100 µM |  | > 100 µM |  |  |  |  |  |  |  |  |  | 
6 | S=c1ssc(N2CCOCC2)c1Cl | > 100 µM | > 100 µM | > 100 µM | 30 µM | > 100 µM |  | > 100 µM | > 100 µM |  | > 100 µM | 78.5 µM | > 100 µM | 58 µM | 78.3 µM | 31 µM | 36 µM | 16.5 µM | > 100 µM |  | 
7 | CCCCNC1CCCCC[C@H]1O (some centres not stated) | > 100 µM | > 100 µM | > 100 µM | > 100 µM | > 100 µM | > 100 µM | > 100 µM | > 100 µM |  | > 100 µM |  |  |  |  |  |  |  |  |  | 
8 | CCCN(CCC)C(=O)c1c([N+](=O)[O-])cc(C(F)(F)F)cc1[N+](=O)[O-] | > 100 µM | > 100 µM | > 100 µM |  | > 100 µM | 84.3 µM | 39.1 µM | 93.3 µM |  | 79.7 µM |  |  |  |  |  |  |  |  |  | 
9 | COc1ccc(-c2nc3ccccn3c2/C=C/C(=O)c2cc(OC)c(OC)c(OC)c2)cc1OC | 15.7 µM | > 100 µM | 11.4 µM | 2.92 µM | > 100 µM | 55.6 µM | > 100 µM |  | 7.34 µM |  | 3.22 µM | 3.92 µM | 1.71 µM |  | 2.52 µM |  | 1.5 µM | 4.91 µM | 2.36 µM | 2.78 µM
10 | COc1cc2c3c(n(CCCN)c(=O)c2cc1OC)-c1ccc(C#N)cc1C3=O | 28.5 µM | 41.9 µM | > 100 µM | 32.6 µM | 30.4 µM | 30.6 µM | 28.7 µM |  | 73.3 µM |  | 14.9 µM | 13.2 µM | 19 µM |  | 4.88 µM |  | 16.4 µM | 11.6 µM | 18.9 µM | 11 µM
11 | c1ccc(C2N3CCCCC3[C@@H]3c4[nH]c5ccccc5c4CCN23)nc1 (some centres not stated) | > 100 µM | > 100 µM |  | > 100 µM | > 100 µM | > 100 µM |  | > 100 µM |  | > 100 µM |  |  |  |  |  |  |  |  |  | 
12 | COC(=O)Nc1nc2ccc(C3(c4ccc(F)cc4)OCCO3)cc2[nH]1 | > 66.6 µM |  | > 100 µM | 17.4 µM | > 100 µM | > 100 µM | 2.88 µM | 58 µM |  | 0.654 µM | 0.917 µM | 0.297 µM |  | 0.268 µM | 0.352 µM | 0.211 µM | 0.267 µM | 0.483 µM |  | 0.311 µM
13 | CCOC(=O)C1SC(=Nc2ccc(C)c(C)c2)N=C1C (configuration not stated) | > 100 µM | > 100 µM | > 100 µM | > 100 µM | > 100 µM | > 100 µM | > 100 µM | > 100 µM | > 100 µM |  |  |  |  |  |  |  |  |  |  | 
14 | O=C1c2ccccc2C(=O)C1(O)c1c[nH]c2ccccc12 |  | > 100 µM | > 100 µM |  | > 100 µM | > 100 µM | > 100 µM | > 100 µM | > 100 µM |  |  |  |  |  |  |  |  |  |  | 
15 | COc1cc2c(cc1OCCCCC(=O)Nc1cc3c4ccccc4ccc3c3ccccc13)N=C[C@@H]1CCCN1C2=O | > 100 µM | 64.2 µM | 18.5 µM | 7.61 µM | > 61.7 µM | > 100 µM | > 100 µM | > 20.9 µM | 16 µM |  | 38.8 µM | 7.65 µM | 17.3 µM | 1.45 µM | 3.87 µM |  | 2.93 µM | 11.3 µM | 3.85 µM | 3.68 µM
16 | OCC1OC(n2cnc3c2NC=NC[C@H]3O)C(Cl)C1O (some centres not stated) | > 100 µM | > 100 µM | > 100 µM | > 100 µM | > 100 µM | > 100 µM | > 100 µM | > 100 µM | > 100 µM |  |  |  |  |  |  |  |  |  |  | 

Reference: PubChem BioAssay (NCI)
